Measured values reported in patent publication US20040229251A1, “Detection of guanylyl and adenylyl cyclase activity” (The Regents of the University of Michigna, priority 2003, published 2004).

What was measured:
VC1 and ACGC domains = target: T1, VC1 and ACGC domains (UniProt P26769+P30803, D1018C/K938E); experiment: guanylyl cyclase activity in the presence of Mn2+, BODIPY FL-GTPγS as substrate; format: biochemical; conditions: 5 mM Mg2+ and 5 mM Mn2+ vs 10 mM Mg2+
T1 construct: The soluble intracellular (C1 and C2) domains of adenylyl cyclase were utilized; The mutations to enhance guanylyl cyclase activity are in the C2 domain
Procedure: This Example describes the effect of Mn^2+ on guanylyl cyclase activity. All assays were performed at 22° C. in the presence of 2 μM BODIPY FL-GTPγS and the presence of 5 mM Mg ^2+ and 5 mM Mn^2+ or 10 mM Mg^2+ and the absence or presence of 100 μM forskolin (Fsk). Assays were performed in a 96 well, low fluorescence microtitre plate using a fluorescence plate reader. Excitation and emission wavelengths were 485 and 525 nm respectively.
The linear portion of the progress curves from data in FIG. 2B was fitted by linear regression with respect to time. The individual rates are plotted against the concentration of the VC1 domain.

[1] = test system: wild type adenylyl cyclases (ACs); conditions: addition of Mn2+ compared with Mg2+; cited from earlier work
[2] = target: T2, membrane-bound form of AC1 (adenylyl cyclase type I) expressed in sf9 cells (Homo sapiens, UniProt Q08828); experiment: membrane cyclase fluorescence assay; format: biochemical
T2 construct: made in house; host or cells: sf9 cells
Procedure: The activity of a membrane-bound form of AC1 (adenylyl cyclase type I) expressed in sf9 cells was measured using the fluorescence assay described above.

T2 sequence (Q08828 whole entry): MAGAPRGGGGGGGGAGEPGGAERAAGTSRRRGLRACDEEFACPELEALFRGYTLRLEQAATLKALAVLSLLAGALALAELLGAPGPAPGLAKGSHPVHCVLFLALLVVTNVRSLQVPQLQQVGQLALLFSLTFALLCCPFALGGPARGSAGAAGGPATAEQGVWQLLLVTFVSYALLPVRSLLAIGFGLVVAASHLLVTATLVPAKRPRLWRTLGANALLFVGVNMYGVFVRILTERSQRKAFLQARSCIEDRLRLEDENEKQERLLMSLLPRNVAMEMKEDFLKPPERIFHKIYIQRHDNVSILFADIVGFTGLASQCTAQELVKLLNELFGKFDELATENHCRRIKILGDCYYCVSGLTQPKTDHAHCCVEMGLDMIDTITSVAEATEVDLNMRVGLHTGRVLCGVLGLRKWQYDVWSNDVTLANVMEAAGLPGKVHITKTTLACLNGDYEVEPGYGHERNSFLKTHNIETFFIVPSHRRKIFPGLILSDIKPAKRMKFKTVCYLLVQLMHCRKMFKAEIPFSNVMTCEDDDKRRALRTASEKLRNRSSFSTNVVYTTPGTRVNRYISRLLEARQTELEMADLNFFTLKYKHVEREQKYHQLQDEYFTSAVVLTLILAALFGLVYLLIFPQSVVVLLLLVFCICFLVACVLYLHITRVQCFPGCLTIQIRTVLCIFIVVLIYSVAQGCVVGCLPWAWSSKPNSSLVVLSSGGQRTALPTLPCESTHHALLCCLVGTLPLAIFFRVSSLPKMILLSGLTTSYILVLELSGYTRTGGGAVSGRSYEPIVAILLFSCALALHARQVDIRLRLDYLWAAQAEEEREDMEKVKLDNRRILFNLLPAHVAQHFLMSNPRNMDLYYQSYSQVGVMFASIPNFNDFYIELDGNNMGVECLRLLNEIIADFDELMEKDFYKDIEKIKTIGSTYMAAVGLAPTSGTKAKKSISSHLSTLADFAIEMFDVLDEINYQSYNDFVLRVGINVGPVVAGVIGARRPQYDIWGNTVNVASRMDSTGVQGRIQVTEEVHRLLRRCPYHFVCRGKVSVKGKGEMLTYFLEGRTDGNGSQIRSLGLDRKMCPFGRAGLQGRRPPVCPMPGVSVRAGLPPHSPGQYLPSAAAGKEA

Compound	enhancement of the forskolin-activated rate of accumulation of BODIPY-thio-pyrophosphate (VC1 and ACGC domains; 100 μM forskolin)	effect on basal activity (VC1 and ACGC domains; absence of forskolin)	alteration of the Km for GTP [1]	effective concentration to produce the half maximal activation (EC50) [2]
[Mn+2] [Mn^2+]	over thirty-fold	enhanced basal activity significantly	at least 1000 fold	–
C=C[C@@]1(C)CC(=O)[C@]2(O)[C@@]3(C)[C@@H](O)CCC(C)(C)[C@@H]3[C@H](O)[C@H](OC(C)=O)[C@@]2(C)O1 [forskolin]	–	–	–	consistent with previously published values
